These results are taken from patent publication US20090118314A1, “TUMOR SUPPRESSOR” (JAPAN AS REPRESENTED BY DIRECTOR GENERAL OF AGENCY CENTER, priority 2006, published 2009).

Broadly, the pIC50 is the negative decadic logarithm of the IC50, by convention in mol/L. A higher pIC50 goes with a small IC50.

Test [1] addresses PAI-1 (Homo sapiens, UniProt P05121). As to the kind of experiment: PAI-1 inhibitory activity using synthetic substrate S-2288. The class given is biochemical. The source says: PAI-1 inhibitory activity can be measured using a synthetic substrate S-2288 according to the methods described in International Publication WO04/011442 pamphlet, International Publication WO04/10996 pamphlet, JP-A-2004-250401, etc.

Test [2] concerns Min mice. As to the kind of experiment: Cancer suppression test (intestinal polyp development) in Min mice. Format: in vivo. As to conditions: male Min mice, 100 ppm in feed, sacrificed at 15 weeks old. The source says:
That is to say, the inventors used, as a test system, familial adenomatous polyposis (FAP) model mice (Apc gene hetero-deficient mice) belonging to a high risk group of large intestinal cancer. These model mice have two characteristics. […] Thus, this mouse can be used as an experimental animal model useful for examining the relationship between a hyperlipidemia condition and large intestinal cancer. In this test, based on the fact that expression of PAI-1 was increased in the polyps of FAP patients and that expression of PAI-1 was induced by triglyceride, the action of suppressing the development of intestinal polyps of a PAI-1-inhibiting compound was evaluated using Min mice that were one type of Apc gene-deficient mice.
5-week-old male Min mice (CLEA Japan, Inc.) were purchased. After giving a basic feed (AIN-76A) to the mice for 1 week, 100 ppm of a test substance was mixed into the feed, and the mixed feed was then given to the mice. On the other hand, in the case of wild-type mice also, the same amount of the test substance was mixed into the feed, and the mixed feed was then given to the wild-type mice. The body weight and the feed intake were measured every week. The mice were sacrificed under anesthesia, when they were 15 weeks old. Then, the weights of main organs (spleen and heart) were measured. Small intestine and large intestine were washed and were then excised in a longitudinal direction, followed by fixing with formalin. The number of intestinal polyps in the small intestine and large intestine were counted and the size thereof were measured under a stereoscopic microscope.

pIC50: −log10 of the molar value.

Sequence of PAI-1 (P05121 24-402, species assumed): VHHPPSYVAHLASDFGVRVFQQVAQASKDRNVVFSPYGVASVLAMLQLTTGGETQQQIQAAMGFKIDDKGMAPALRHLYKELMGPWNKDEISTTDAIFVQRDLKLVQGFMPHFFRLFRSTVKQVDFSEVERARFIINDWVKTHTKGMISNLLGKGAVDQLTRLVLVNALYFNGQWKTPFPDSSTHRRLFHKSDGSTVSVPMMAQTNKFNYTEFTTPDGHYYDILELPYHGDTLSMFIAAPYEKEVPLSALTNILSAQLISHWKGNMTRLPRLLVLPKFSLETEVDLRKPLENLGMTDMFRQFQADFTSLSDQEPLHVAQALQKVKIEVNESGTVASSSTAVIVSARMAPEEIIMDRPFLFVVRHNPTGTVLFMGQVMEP

Take `O=C(O)C(CCCCCOc1ccc2cc(-c3nc(OCc4ccccc4)cc(-c4ccccc4)n3)ccc2c1)C(=O)O` [compound 47, [5-[[6-[4-phenyl-6-(phenylmethoxy)-2-pyrimidinyl]-2-naphthalenyl]oxy]pentyl]propanedioic acid]: in test [1], the pIC50 was 6.46.

Take `Cc1ccc(-c2nc(-c3ccc4cc(OCCCCCC(C(=O)O)C(=O)O)ccc4c3)oc2-c2ccc(C)cc2)cc1` [compound 7, [5-[[6-[4,5-bis(4-methylphenyl)-2-oxazolyl]-2-naphthalenyl]oxy]pentyl]propanedioic acid]: the negative logarithm of the IC50 (pIC50) in test [1] is 6.23. As to `O=C(O)C(CCCCCOc1ccc2cc(-c3nc4ccc(OCC5CCCCC5)cc4o3)ccc2c1)C(=O)O` [compound 23, [5-[[6-[6-(cyclohexylmethoxy)-2-benzoxazolyl]-2-naphthalenyl]oxy]pentyl]propanedioic acid], the pIC50 in test [1] is 6.41. This pIC50 and that of the molecule before are within 0.2 log units of each other.

The molecule `O=C(O)C(CCCCCOc1ccc2cc(-c3nc(-c4ccccc4)c(-c4ccccc4)o3)ccc2c1)C(=O)O` [compound 6, [5-[[6-(4,5-diphenyl-2-oxazolyl)-2-naphthalenyl]oxy]pentyl]propanedioic acid] had a pIC50 in test [1] of 6.03. As for `O=C(O)C(CCCOc1ccc2cc(-c3nc4cc(-c5ccccc5)ccc4o3)ccc2c1)C(=O)O` [compound 13, [3-[[6-(5-phenyl-2-benzoxazolyl)-2-naphthalenyl]oxy]propyl]propanedioic acid], in test [1], the negative-log IC50 (pIC50) was 6.27. On the same count and under the same terms, next, `CC(C)(C)c1cc(OCC2CCCCC2)nc(-c2ccc3cc(OCCCCCC(C(=O)O)C(=O)O)ccc3c2)n1` [compound 48, [5-[[6-[4-cyclohexylmethoxy-6-(1,1-dimethylethyl)-2-pyrimidinyl]-2-naphthalenyl]oxy]pentyl]propanedioic acid]: 6.49; `COc1ccc(-c2cc(OCc3ccccc3F)nc(-c3ccc4cc(OCCCC(C(=O)O)C(=O)O)ccc4c3)n2)cc1` [compound 43, [3-[[6-[4-[(2-fluorophenyl)methoxy]-6-(4-methoxyphenyl)-2-pyrimidinyl]-2-naphthalenyl]oxy]propyl]propanedioic acid]: 6.07.

In test [1], `O=C(O)C(CCCCCOc1ccc2cc(-c3nc4ccc(OCc5ccccc5)cc4o3)ccc2c1)C(=O)O` [compound 24, [5-[[6-[6-(phenylmethoxy)-2-benzoxazolyl]-2-naphthalenyl]oxy]pentyl]propanedioic acid] showed a pIC50 of 6.27.

With `CC(C)(C)c1cc(OCc2ccccc2Cl)nc(-c2ccc3cc(OCCCCCC(C(=O)O)C(=O)O)ccc3c2)n1` [compound 50, [5-[[6-[4-[(2-chlorophenyl)methoxy]-6-(1,1-dimethylethyl)-2-pyrimidinyl]-2-naphthalenyl]oxy]pentyl]propanedioic acid], in test [1], the pIC50 was 6.66. With `CC(C)(C)c1ccc2oc(-c3ccc4cc(OCCCCCC(C(=O)O)C(=O)O)ccc4c3)nc2c1` [Compound No. 20, [5-[[6-[5-(1,1-dimethylethyl)-2-benzoxazolyl]-2-naphthalenyl]oxy]pentyl]propanedioic acid], the pIC50 in test [1] was 6.36. In addition, in test [2], the “development of intestinal polyps in the proximal portion of small intestine” value was “suppressed particularly strongly”, the “distribution of the polyp size” value is listed as “a decrease in the size was observed overall”, the “polyps with a diameter size of 1 mm or less” value is listed as “significantly decreased” and the “weight of heart (indicator of anemia caused by bleeding associated with intestinal polyps)” value was “significantly reduced”. Moreover, the “weight of spleen (indicator of anemia caused by bleeding associated with intestinal polyps)” value in test [2] is “significantly reduced”. Besides, the “total number of polyps per mouse, decreased to” value in test [2] (small and large intestine) was “approximately 66%”. `CC(C)(C)c1cc(OCc2ccc(F)cc2)nc(-c2ccc3cc(OCCCCCC(C(=O)O)C(=O)O)ccc3c2)n1` [compound 49, [5-[[6-[4-(1,1-dimethylethyl)-6-[(4-fluorophenyl)methoxy]-2-pyrimidinyl]-2-naphthalenyl]oxy]pentyl]propanedioic acid]: in test [1], the pIC50 was 6.54.
